Reference: patent US10653617B2, “Compositions of additives to ginger-curcumin to facilitate growth of fibroblasts and collagen” (priority 2016, dated 2020)

What was measured:
Human dermal fibroblasts [1] = assay: Fibroblast cytotoxicity assay; type: cell-based; details: 72 hours; for concentration up to which non-toxic (all concentrations evaluated): agent tested individually, KBM, 1.5 mM calcium; for growth-inhibition/cytotoxicity of the individual agent: agent tested individually over a wide range of concentrations
Experimental: Human dermal fibroblasts were isolated from skin biopsies and grown in monolayer culture using DMEM supplemented with 10% fetal bovine serum as culture medium. Growth was at 37° C. in a humidified atmosphere containing 5% CO2 and 95% air. For experimental studies, cells were plated at 5×10^4 cells per well in wells of a 24-well culture dish in the same culture medium. One day later, cells were washed and the DMEM culture medium was replaced with KBM. Human dermal fibroblasts were treated with culture medium (KBM) supplemented with a concentration of calcium (1.5 mM) that supports fibroblast survival on its own. Reagents to be tested for cytotoxicity and/or growth inhibition were included in the culture medium and the cells incubated for 72 hours.

Human dermal fibroblasts [2] = details: cited from earlier work

Molecule | concentration up to which non-toxic (all concentrations evaluated) (Human dermal fibroblasts [1]) | growth-inhibition/cytotoxicity of the individual agent (Human dermal fibroblasts [1]) | other results
O=C1O[C@H]([C@@H](O)CO)C(O)=C1O [L-ascorbic acid] | up to 200 μg/mL |  | 
CCCCCCCCCCCCOS(=O)(=O)[O-].[Na+] [SLS, sodium lauryl sulfate] |  | levels that produced growth-inhibition/cytotoxicity were achieved | 
hyaluronan | ≤ 20000 ng/mL |  | 
CS(C)(=O)=O [MSM, dimethyl sulfone] |  | levels that produced growth-inhibition/cytotoxicity were achieved | 
COc1cc(/C=C/C(=O)CC(=O)/C=C/c2ccc(O)c(OC)c2)ccc1O [curcumin] |  | levels that produced growth-inhibition/cytotoxicity were achieved | 
CC1=C(/C=C/C(C)=C/C=C/C(C)=C/C(=O)O)C(C)(C)CCC1 [ATRA, all-trans retinoic acid] |  |  | concentrations that are effective in this assay (Human dermal fibroblasts [2]): 1 to 10 µM
